Experimental data: patent publication US20230092890A1, “1, 3, 4-Oxadiazole derivative compounds as histone deacetylase 6 inhibitor, and the pharmaceutical composition comprising the same” (Chong Kun Dang Pharmaceutical Corp., priority 2019, published 2023)

Experiments:
[1] = target: T1, HDAC6 human recombinant (Homo sapiens, UniProt Q9UBN7); test: HDAC enzyme activity inhibition (in vitro), HDAC6 assay; format: biochemical; conditions: samples at 0.1, 1, 10, 100 and 1000 nM; 37° C. 60 minutes; fluorescence Ex 390, Em 460; read-out: HDAC6 IC50
T1 construct: purchased Calbiochem 382180
T1 sequence (Q9UBN7 1-1215): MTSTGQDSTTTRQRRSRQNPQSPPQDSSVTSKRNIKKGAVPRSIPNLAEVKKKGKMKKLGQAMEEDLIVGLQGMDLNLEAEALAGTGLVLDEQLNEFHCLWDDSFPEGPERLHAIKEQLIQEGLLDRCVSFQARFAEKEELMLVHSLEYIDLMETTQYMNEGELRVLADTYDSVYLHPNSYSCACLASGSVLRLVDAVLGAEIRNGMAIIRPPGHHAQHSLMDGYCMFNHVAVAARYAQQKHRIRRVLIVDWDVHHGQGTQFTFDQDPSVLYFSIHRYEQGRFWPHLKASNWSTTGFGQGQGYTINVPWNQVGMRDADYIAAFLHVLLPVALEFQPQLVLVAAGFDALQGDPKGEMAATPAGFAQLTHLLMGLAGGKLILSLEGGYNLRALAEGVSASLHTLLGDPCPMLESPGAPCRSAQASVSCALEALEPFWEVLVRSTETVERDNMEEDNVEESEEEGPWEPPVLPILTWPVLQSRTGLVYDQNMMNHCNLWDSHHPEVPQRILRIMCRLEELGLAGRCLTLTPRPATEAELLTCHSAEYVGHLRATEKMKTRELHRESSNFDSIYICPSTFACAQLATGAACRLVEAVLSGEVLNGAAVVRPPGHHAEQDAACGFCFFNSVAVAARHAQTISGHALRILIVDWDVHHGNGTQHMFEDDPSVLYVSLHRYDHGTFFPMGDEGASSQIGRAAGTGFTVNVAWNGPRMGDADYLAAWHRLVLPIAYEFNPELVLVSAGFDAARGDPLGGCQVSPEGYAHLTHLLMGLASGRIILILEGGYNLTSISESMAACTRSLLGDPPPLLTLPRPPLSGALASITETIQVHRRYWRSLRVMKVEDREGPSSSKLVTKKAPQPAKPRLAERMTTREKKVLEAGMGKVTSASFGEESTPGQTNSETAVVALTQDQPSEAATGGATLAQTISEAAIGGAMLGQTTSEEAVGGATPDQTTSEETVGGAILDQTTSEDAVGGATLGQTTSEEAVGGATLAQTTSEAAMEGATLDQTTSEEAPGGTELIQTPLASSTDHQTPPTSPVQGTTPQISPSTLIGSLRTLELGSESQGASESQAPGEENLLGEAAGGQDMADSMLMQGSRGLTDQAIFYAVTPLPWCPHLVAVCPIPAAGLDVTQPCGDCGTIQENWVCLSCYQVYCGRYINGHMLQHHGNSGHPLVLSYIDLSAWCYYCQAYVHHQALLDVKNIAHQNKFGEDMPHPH
How it was run: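 HDAC6 human recombinant enzyme with fluorimetric substrate; […]. Reaction 60 min at 37° C, then developer 30 min at 37° C; fluorescence read at Ex 390/Em 460.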

[2] = target: T2, HDAC1 (Homo sapiens, UniProt Q13547); test: HDAC enzyme activity inhibition (in vitro), HDAC1 Fluorimetric Drug Discovery Assay Kit; format: biochemical; conditions: samples at 100, 1000 and 10000 nM; 37° C. 60 minutes; fluorescence Ex 390, Em 460; read-out: HDAC1 IC50
T2 construct: purchased Enzolifesciences BML-AK511
How it was run: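 Compounds at 100, 1000, 10000 nM (HDAC1) or 0.1, 1, 10, 100, 1000 nM (HDAC6); 37° C, 60 min; developer, 37° C, 30 min; fluorescence Ex 390/Em 460.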

T2 sequence (Q13547 whole entry): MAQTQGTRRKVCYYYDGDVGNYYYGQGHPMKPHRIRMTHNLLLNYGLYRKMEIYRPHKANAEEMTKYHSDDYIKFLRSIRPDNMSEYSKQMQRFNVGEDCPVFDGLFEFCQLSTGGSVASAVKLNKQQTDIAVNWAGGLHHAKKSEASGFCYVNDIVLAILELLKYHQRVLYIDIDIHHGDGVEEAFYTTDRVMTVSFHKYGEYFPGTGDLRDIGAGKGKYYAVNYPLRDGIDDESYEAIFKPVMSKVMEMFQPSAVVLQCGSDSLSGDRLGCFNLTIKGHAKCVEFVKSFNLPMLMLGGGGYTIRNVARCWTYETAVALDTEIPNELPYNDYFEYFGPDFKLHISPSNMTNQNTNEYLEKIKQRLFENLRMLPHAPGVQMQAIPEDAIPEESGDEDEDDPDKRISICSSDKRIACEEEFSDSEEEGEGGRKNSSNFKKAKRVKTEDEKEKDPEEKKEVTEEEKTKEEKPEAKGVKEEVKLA

Structure (SMILES)	IC50 [1] [µM]	IC50 [2] [µM]
Cn1nccc1-c1ccc2c(c1)n(C)c(=O)n2Cc1ccc(-c2nnc(C(F)F)o2)cn1 [Compound 222, 1-((5-(5-(difluoromethyl)-1,3,4-oxadiazole-2-yl)pyridine-2-yl)methyl)-3-methyl-5-(1-methyl-1H-pyrazole-5-yl)-1,3-dihydro-2H-benzo[d]imidazole-2-one]	0.021	> 10
CCC(F)(F)CN1CCC(n2c(=O)n(Cc3ccc(-c4nnc(C(F)F)o4)cn3)c3cc(Cl)ccc32)CC1 [Compound 233, 5-chloro-1-(1-(2,2-difluorobutyl)piperidine-4-yl)-3-((5-(5-(difluoromethyl)-1,3,4-oxadiazole-2-yl)pyridine-2-yl)methyl)-1,3-dihydro-2H-benzo[d]imidazole-2-one]	0.107	> 10
O=c1oc2cc(C3CCN(C4COC4)CC3)ccc2n1Cc1ccc(-c2nnc(C(F)F)o2)cn1 [Compound 314, 3-((5-(5-(difluoromethyl)-1,3,4-oxadiazole-2-yl)pyridine-2-yl)methyl)-6-(1-(oxetan-3-yl)piperidine-4-yl)benzo[d]oxazole-2(3H)-one]	0.112	> 10
Cn1ccc2cc(-c3cc4c(cc3F)n(Cc3ccc(-c5nnc(C(F)F)o5)cn3)c(=O)n4C)ccc21 [Compound 227, 1-((5-(5-(difluoromethyl)-1,3,4-oxadiazole-2-yl)pyridine-2-yl)methyl)-6-fluoro-3-methy 1-5-(1-methyl-1H-indole-5-yl)-1,3-dihydro-2H-benzo[d]imidazole-2-one]	0.032	> 10
CS(=O)(=O)N1CCC(n2c(=O)n(Cc3ccc(-c4nnc(C(F)F)o4)cc3)c3cc(F)c(F)cc32)CC1 [Compound 194, 1-(4-(5-(difluoromethyl)-1,3,4-oxadiazole-2-yl)benzyl)-5,6-difluoro-3-(1-(methylsulfonyl)piperidine-4-yl)-1,3-dihydro-2H-benzo[d]imidazole-2-one]	0.084	> 10
CN1CCC(n2c(=O)n(Cc3ccc(-c4nnc(C(F)F)o4)cc3)c3ccccc32)CC1 [Compound 5, 1-(4-(5-(difluoromethyl)-1,3,4-oxadiazole-2-yl)benzyl)-3-(1-methylpiperidine-4-yl)-1,3-dihydro-2H-benzo[d]imidazole-2-one]	0.34	> 10
O=c1n(Cc2ccc(-c3nnc(C(F)F)o3)cn2)c2cc(F)c(-c3ccncc3)cc2n1[C@H]1CCCN(C2COC2)C1 [Compound 299, (S)-1-((5-(5-(difluoromethyl)-1,3,4-oxadiazole-2-yl)pyridine-2-yl)methyl)-6-fluoro-3-(1-(oxetan-3-yl)piperidine-3-yl)-5-(pyridine-4-yl)-1,3-dihydro-2H-benzo[d]imidazole-2-one]	0.013	> 10
CC(C)N1CCC(n2cc(-c3ccc4c(c3)sc(=O)n4Cc3ccc(-c4nnc(C(F)F)o4)cn3)cn2)CC1 [Compound 354, 3-((5-(5-(difluoromethyl)-1,3,4-oxadiazole-2-yl)pyridine-2-yl)methyl)-6-(1-(1-isopropylpiperidine-4-yl)-1H-pyrazole-4-yl)benzo[d]thiazole-2(3H)-one]	0.016	> 10
CN1CCC(n2c(=O)n(Cc3ccc(-c4nnc(C(F)F)o4)cc3F)c3cc(-c4cccc(F)c4)ccc32)CC1 [Compound 120, 3-(4-(5-(difluoromethyl)-1,3,4-oxadiazole-2-yl)-2-fluorobenzyl)-5-(3-fluorophenyl)-1-(1-methylpiperidine-4-yl)-1,3-dihydro-2H-benzo[d]imidazole-2-one]	1.31	> 10
O=c1n(Cc2ccc(-c3nnc(C(F)F)o3)cc2F)c2cc(F)ccc2n1C1CCN(C2CCOCC2)CC1 [Compound 72, 3-(4-(5-(difluoromethyl)-1,3,4-oxadiazole-2-yl)-2-fluorobenzyl)-5-fluoro-1-(1-(tetrahydro-2H-pyran-4-yl)piperidine-4-yl)-1,3-dihydro-2H-benzo[d]imidazole-2-one]	0.026	> 10
CN1CC(n2c(=O)n(Cc3ccc(-c4nnc(C(F)F)o4)cn3)c3ccccc32)C1 [Compound 7, 1-((5-(5-(difluoromethyl)-1,3,4-oxadiazole-2-yl)pyridine-2-yl)methyl)-3-(1-methylazetidine-3-yl)-1,3-dihydro-2H-benzo[d]imidazole-2-one]	0.264	> 10
Cn1c(=O)n(Cc2ccc(-c3nnc(C(F)F)o3)cn2)c2cc(F)ccc21 [Compound 142, 3-((5-(5-(difluoromethyl)-1,3,4-oxadiazole-2-yl)pyridine-2-yl)methyl)-5-fluoro-1-methy 1-1,3-dihydro-2H-benzo[d]imidazole-2-one]	0.018	> 10
CN1CCC(c2ccc3c(c2)n(C2CCN(C)CC2)c(=O)n3Cc2ccc(-c3nnc(C(F)F)o3)cc2F)CC1 [Compound 156, 1-(4-(5-(difluoromethyl)-1,3,4-oxadiazole-2-yl)-2-fluorobenzyl)-3,5-bis(1-methylpiperidine-4-yl)-1,3-dihydro-2H-benzo[d]imidazole-2-one]	0.102	> 10
Cn1c(=O)n(Cc2ccc(-c3nnc(C(F)F)o3)cc2F)c2cc(-c3cccc(F)c3)ccc21 [Compound 112, 3-(4-(5-(difluoromethyl)-1,3,4-oxadiazole-2-yl)-2-fluorobenzyl)-5-(3-fluorophenyl)-1-m ethyl-1,3-dihydro-2H-benzo[d]imidazole-2-one]	0.864	> 10
CN1CCC(n2c(=O)n(Cc3ccc(-c4nnc(C(F)F)o4)cn3)c3cc(F)c(-c4cccc(F)c4)cc32)CC1 [Compound 154, 1-((5-(5-(difluoromethyl)-1,3,4-oxadiazole-2-yl)pyridine-2-yl)methyl)-6-fluoro-5-(3-fluorophenyl)-3-(1-methylpiperidine-4-yl)-1,3-dihydro-2H-benzo[d]imidazole-2-one]	0.042	> 10
CN1CCC(n2c(=O)n(Cc3ccc(-c4nnc(C(F)F)o4)cn3)c3cc(F)c(-c4cn[nH]c4)cc32)CC1 [Compound 248, 1-((5-(5-(difluoromethyl)-1,3,4-oxadiazole-2-yl)pyridine-2-yl)methyl)-6-fluoro-3-(1-methylpiperidine-4-yl)-5-(1H-pyrazole-4-yl)-1,3-dihydro-2H-benzo[d]imidazole-2-one]	0.006	> 10
O=c1n(Cc2ccc(-c3nnc(C(F)F)o3)cn2)c2cc(F)c(N3CCN(C4COC4)CC3)cc2n1-c1cccnc1 [Compound 329, 1-((5-(5-(difluoromethyl)-1,3,4-oxadiazole-2-yl)pyridine-2-yl)methyl)-6-fluoro-5-(4-(oxetan-3-yl)piperazine-1-yl)-3-(pyridine-3-yl)-1,3-dihydro-2H-benzo[d]imidazole-2-one]	0.127	> 10
CN1CCC(n2c(=O)n(Cc3ccc(-c4nnc(C(F)F)o4)cn3)c3cc(Br)ccc32)CC1 [Compound 141, 5-bromo-3-((5-(5-(difluoromethyl)-1,3,4-oxadiazole-2-yl)pyridine-2-yl)methyl)-1-(1-methylpiperidine-4-yl)-1,3-dihydro-2H-benzo[d]imidazole-2-one]	0.012	> 10
